Values quoted from earlier work in patent US11478522B2, “Synergistic herbal compositions with prebiotic properties for treatment of acne” (KAMEDIS LTD., priority 2016, dated 2022).

Legend:
NLRP3 inflammasome = NLRP3 inflammasome (Homo sapiens, UniProt Q96P20)
enzyme 11β-HSD1 = enzyme 11β-HSD1 (Homo sapiens, UniProt P28845)
enzyme 11β-HSD1, sequence (P28845 whole entry, species assumed): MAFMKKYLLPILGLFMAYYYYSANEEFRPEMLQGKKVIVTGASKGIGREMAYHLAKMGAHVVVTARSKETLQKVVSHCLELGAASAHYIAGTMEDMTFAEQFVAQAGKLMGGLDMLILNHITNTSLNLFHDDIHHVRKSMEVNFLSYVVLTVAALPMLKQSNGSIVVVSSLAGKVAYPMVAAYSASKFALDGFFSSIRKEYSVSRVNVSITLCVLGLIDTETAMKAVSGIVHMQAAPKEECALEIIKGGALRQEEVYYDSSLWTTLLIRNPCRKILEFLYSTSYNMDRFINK

NLRP3 inflammasome, sequence (Q96P20 whole entry): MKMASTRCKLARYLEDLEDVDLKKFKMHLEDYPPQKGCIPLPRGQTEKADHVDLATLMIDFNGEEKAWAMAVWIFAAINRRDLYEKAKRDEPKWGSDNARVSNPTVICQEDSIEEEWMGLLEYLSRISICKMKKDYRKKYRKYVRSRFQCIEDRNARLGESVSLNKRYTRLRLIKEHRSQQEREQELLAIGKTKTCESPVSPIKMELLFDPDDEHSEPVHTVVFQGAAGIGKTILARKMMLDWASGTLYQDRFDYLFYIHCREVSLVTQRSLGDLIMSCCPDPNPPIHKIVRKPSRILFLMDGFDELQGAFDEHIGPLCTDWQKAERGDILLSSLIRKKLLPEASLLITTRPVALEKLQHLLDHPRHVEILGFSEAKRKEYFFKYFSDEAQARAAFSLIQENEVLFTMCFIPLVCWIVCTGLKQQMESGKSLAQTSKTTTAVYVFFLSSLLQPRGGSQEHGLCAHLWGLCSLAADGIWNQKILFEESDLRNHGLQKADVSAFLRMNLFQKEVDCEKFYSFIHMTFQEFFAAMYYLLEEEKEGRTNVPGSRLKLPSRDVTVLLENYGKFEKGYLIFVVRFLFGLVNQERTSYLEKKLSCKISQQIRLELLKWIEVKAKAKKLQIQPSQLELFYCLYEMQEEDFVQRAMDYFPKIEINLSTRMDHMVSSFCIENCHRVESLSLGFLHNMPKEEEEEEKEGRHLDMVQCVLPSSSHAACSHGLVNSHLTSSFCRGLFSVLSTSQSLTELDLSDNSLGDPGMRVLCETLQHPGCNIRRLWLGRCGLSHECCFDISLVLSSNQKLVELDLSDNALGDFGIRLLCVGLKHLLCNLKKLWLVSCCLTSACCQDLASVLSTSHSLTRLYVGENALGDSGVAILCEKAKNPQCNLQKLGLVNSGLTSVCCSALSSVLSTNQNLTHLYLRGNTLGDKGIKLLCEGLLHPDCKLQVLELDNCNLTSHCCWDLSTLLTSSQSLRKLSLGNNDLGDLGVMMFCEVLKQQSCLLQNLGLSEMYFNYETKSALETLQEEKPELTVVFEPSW

In the case of `Cc1cc(O)c2c(c1)C(=O)c1cc(O)cc(O)c1C2=O` [emodin], the NLRP3 inflammasome activation (NLRP3 inflammasome) is listed as “attenuate NLRP3 inflammasome activation” and the “inhibition of the enzyme 11β-HSD1” value (enzyme 11β-HSD1) is listed as “effective and selective as inhibitors”.
